Experimental findings from PubChem BioAssay (NCI) are described below.

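Briefly, cells in 96-well plates were exposed to five compound concentrations for 48 h, and endpoints were estimated by linear interpolation. TGI is the concentration that stops growth completely.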

Some test systems named below: SNB-19 CNS; SK-OV-3 ovarian; ACHN renal; SK-MEL-28 melanoma; HCT-116 colon; RPMI-8226 leukemia; MDA-N; MCF7 breast; COLO 205 colon; HT29 colon; NCI-H226 lung.
Holding throughout (assay): growth of human tumour cells (NCI), 48 h

Take `CCc1ccc2[nH]c(O)c(-c3[nH]c4ccccc4c3N=O)c2c1`: the TGI is 31.6 µM in the assay with SNB-19 CNS; 12.1 µM with SK-OV-3 ovarian; 14.7 µM in the assay with ACHN renal; 26.7 µM with SK-MEL-28 melanoma; 10 µM in the assay with HCT-116 colon; above 100 µM with RPMI-8226 leukemia. Moreover, the TGI worked out at 20.5 µM in the assay with MDA-N; 6.05 µM in the assay on MCF7 breast; 23.2 µM in the assay on COLO 205 colon; 25.5 µM with HT29 colon; 62.5 µM with NCI-H226 lung.

Consider `O=C1C(Br)=CC2(C=C1Br)CCNC1=C2C(=O)c2cccnc2C1=O`, for which the TGI with SNB-19 CNS was determined as 20 µM; with SK-OV-3 ovarian, 31.8 µM; in the assay with ACHN renal, 48.9 µM; in the assay with SK-MEL-28 melanoma, 29.3 µM; in the assay with HCT-116 colon it was 26.4 µM; in the assay on RPMI-8226 leukemia it was 36.9 µM. Moreover, the TGI in the assay on MDA-N was 3.46 µM; in the assay with MCF7 breast, 41.3 µM; with COLO 205 colon, 30.1 µM; with HT29 colon it was 56.7 µM; with NCI-H226 lung, 36.9 µM.

In the case of `CCOC(=O)/C=C(\C(=O)OCC)n1ccc(N)nc1=O`, the TGI with SNB-19 CNS, with SK-OV-3 ovarian, in the assay on ACHN renal, in the assay with HCT-116 colon, with RPMI-8226 leukemia and in the assay on MDA-N was above 100 µM throughout. Also, the TGI in the assay on MCF7 breast, in the assay with COLO 205 colon, with HT29 colon and in the assay on NCI-H226 lung was above 100 µM throughout.

Turning to `O=C(CCCCCCCCC(=O)N1C(=O)CC(=O)N(c2cccc(Cl)c2)C1=S)N1C(=O)CC(=O)N(c2cccc(Cl)c2)C1=S`, the TGI in the assay on SNB-19 CNS, with SK-OV-3 ovarian, with ACHN renal, in the assay on HCT-116 colon, in the assay with RPMI-8226 leukemia and with MDA-N was above 100 µM throughout. In addition, the TGI in the assay on MCF7 breast, in the assay with COLO 205 colon and with HT29 colon was above 100 µM throughout.

`COc1cc(/C=C2\N=C(c3ccccc3)N(c3nc4c(OC)ccc(OC)c4s3)C2=O)cc(OC)c1OC`: the TGI in the assay on SNB-19 CNS, in the assay on SK-OV-3 ovarian, in the assay on ACHN renal, in the assay on SK-MEL-28 melanoma, in the assay with HCT-116 colon and in the assay with RPMI-8226 leukemia was above 100 µM in each case. Also, the TGI with MDA-N, in the assay with MCF7 breast, in the assay on COLO 205 colon and with HT29 colon was above 100 µM in each case.

As for `CC[C@H](C)[C@H]1NC(=O)[C@@H](NC(=O)[C@@H](CC(C)C)N(C)CC2CCCN2C(=O)C(C)=O)[C@@H](C)OC(=O)[C@H](Cc2ccc(OC)cc2)N(C)C(=O)C2CCCN2C(=O)[C@H](CC(C)C)NC(=O)[C@@H](C)C(=O)[C@H](C(C)C)OC(=O)C[C@@H]1O` (stereo not given in full), the TGI in the assay on SNB-19 CNS was 0.0115 µM; with SK-OV-3 ovarian it was 0.0194 µM; in the assay with ACHN renal it was 0.0389 µM; in the assay with SK-MEL-28 melanoma, 0.0303 µM; in the assay on HCT-116 colon, 0.0102 µM; in the assay with RPMI-8226 leukemia, 0.00697 µM. The TGI was 0.02 µM in the assay on MDA-N; 0.00747 µM with MCF7 breast; 0.00879 µM with COLO 205 colon; 0.0065 µM in the assay with HT29 colon; 0.0809 µM in the assay on NCI-H226 lung.

For `O=c1[nH]nc(-c2ccccc2)n1/N=C/c1c(O)ccc2ccccc12`, the TGI in the assay with SNB-19 CNS is 85.4 µM; with SK-OV-3 ovarian it was 68.4 µM; with ACHN renal, above 100 µM; in the assay on SK-MEL-28 melanoma, above 100 µM; in the assay on HCT-116 colon, above 100 µM; in the assay with RPMI-8226 leukemia, above 100 µM. The TGI in the assay with MDA-N, in the assay on MCF7 breast, in the assay on COLO 205 colon and with HT29 colon was above 100 µM in each case.

For the molecule `O=S1(=O)c2ccccc2C(=NO)c2ccccc21`, the TGI in the assay on SK-OV-3 ovarian, in the assay with ACHN renal, in the assay on SK-MEL-28 melanoma, in the assay on HCT-116 colon, with RPMI-8226 leukemia and with MDA-N was above 100 µM in each case. Moreover, the TGI in the assay on MCF7 breast, in the assay on COLO 205 colon, with HT29 colon and in the assay with NCI-H226 lung was above 100 µM each time.

Turning to `O=C(c1ccccc1)c1ccc2nc(-c3c(Cl)c(Cl)c(Cl)c(Cl)c3C(=O)N/N=C/c3ccccc3)[nH]c2c1`, the TGI in the assay with SNB-19 CNS was above 100 µM; with SK-OV-3 ovarian it was above 100 µM; in the assay on ACHN renal, 49.2 µM; in the assay on SK-MEL-28 melanoma, above 100 µM; with HCT-116 colon, above 100 µM; with RPMI-8226 leukemia it was 63 µM. The TGI with MDA-N was 93.7 µM; in the assay with MCF7 breast, 41.9 µM; in the assay on COLO 205 colon, 39.3 µM; with HT29 colon, above 100 µM; in the assay on NCI-H226 lung, 79.8 µM.

In the case of `COC(=O)n1c(=O)n(-c2ccccc2)c(=O)n1C(=O)OC`, the TGI with SNB-19 CNS, in the assay on SK-OV-3 ovarian, in the assay on SK-MEL-28 melanoma, in the assay on HCT-116 colon, in the assay with RPMI-8226 leukemia and in the assay on MDA-N was above 100 µM in each case. The TGI with MCF7 breast, with COLO 205 colon, in the assay on HT29 colon and in the assay on NCI-H226 lung was above 100 µM throughout.

With `Nc1ccccc1N/C=C\C(=O)C(Cl)(Cl)Cl`, the TGI in the assay with SNB-19 CNS is above 100 µM; in the assay on SK-OV-3 ovarian, 70.8 µM; in the assay on ACHN renal it was 35.1 µM; in the assay on SK-MEL-28 melanoma, 42.8 µM; in the assay on HCT-116 colon, 29.7 µM; with RPMI-8226 leukemia, 38 µM. Also, the TGI was 30.9 µM in the assay on MDA-N; 30.7 µM with MCF7 breast; 52.7 µM in the assay on COLO 205 colon; 34.6 µM in the assay on HT29 colon; above 100 µM with NCI-H226 lung.

As to `CNC(=O)c1cc(NC(=O)N(CCC#N)CCN(C(=O)N[C@@H](Cc2ccccc2)C(=O)N[C@@H](CC(C)C)C(=O)NC)c2ccccc2)ccc1OC`, the TGI with SNB-19 CNS was above 100 µM; with SK-OV-3 ovarian, above 100 µM; in the assay on ACHN renal, above 100 µM; in the assay on SK-MEL-28 melanoma, above 61.9 µM; in the assay with HCT-116 colon, above 100 µM; with RPMI-8226 leukemia, above 88.3 µM. The TGI in the assay on MDA-N, in the assay on MCF7 breast, in the assay with COLO 205 colon, with HT29 colon and with NCI-H226 lung was above 100 µM throughout.
